# Laboratory results as given in publication PMC11945486, “TAS1R2/TAS1R3 Single-Nucleotide Polymorphisms Affect Sweet Taste Receptor Activation by Sweeteners: The SWEET Project” (Nutrients, 2025).
# Columns and labels:
# [1] = biological target: T1, human TAS1R2-WT (subunit alone) (Homo sapiens, UniProt Q8TE23); experiment: Calcium mobilisation assay, TAS1R2-WT subunit alone; type: cell-based
# T1 construct: expressed in transfected cells; host or cells: HEK293T-Gα16gust44
# T1 sequence (Q8TE23 20-839): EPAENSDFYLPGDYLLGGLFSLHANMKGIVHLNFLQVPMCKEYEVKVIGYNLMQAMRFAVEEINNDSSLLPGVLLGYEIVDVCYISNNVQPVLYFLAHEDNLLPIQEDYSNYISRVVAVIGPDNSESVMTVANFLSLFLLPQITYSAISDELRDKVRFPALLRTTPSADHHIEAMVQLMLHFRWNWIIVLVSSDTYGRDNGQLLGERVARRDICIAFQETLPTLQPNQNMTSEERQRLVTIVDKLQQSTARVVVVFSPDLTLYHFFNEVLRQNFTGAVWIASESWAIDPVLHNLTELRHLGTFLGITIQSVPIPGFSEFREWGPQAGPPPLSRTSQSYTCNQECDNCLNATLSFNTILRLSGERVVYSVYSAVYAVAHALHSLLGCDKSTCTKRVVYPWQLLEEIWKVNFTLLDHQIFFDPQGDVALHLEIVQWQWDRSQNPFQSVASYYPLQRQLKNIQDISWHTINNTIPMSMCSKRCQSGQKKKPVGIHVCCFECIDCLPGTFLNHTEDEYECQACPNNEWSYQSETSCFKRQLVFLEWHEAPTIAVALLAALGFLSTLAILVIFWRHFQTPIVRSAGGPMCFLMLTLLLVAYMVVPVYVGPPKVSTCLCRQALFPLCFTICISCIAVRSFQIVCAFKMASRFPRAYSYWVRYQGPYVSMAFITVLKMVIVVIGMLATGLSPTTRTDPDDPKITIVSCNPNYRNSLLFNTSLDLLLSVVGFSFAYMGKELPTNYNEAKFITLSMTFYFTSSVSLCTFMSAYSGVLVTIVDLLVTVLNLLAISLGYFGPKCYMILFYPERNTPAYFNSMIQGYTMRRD
# Text: (§1) The coding sequences for TAS1R2 and TAS1R3 were commercially synthesised, and the human codon was optimised for expression in human cells. The coding sequences of human TAS1R2 and TAS1R3 were subcloned and inserted into the mammalian expression vectors pcDNA6/myc-HisA and pcDNA4/myc-HisA (Invitrogen; Thermo Fisher Scientific; Illkirch, France) between the EcoRI and NotI restriction sites, generating the plasmids pcDNA6-TAS1R2 and pcDNA4-TAS1R3, respectively. To increase protein expression in mammalian cells, an upstream start codon was used, which was a sequence called MAX, corresponding to the QBI SP163 element also described in pcDNA4-HisMax (Invitrogen; Thermo Fisher Scientific; Illkirch, France). To measure the expression level of the receptor by immunohistochemistry, we used the FLAG sequence ([…]) in the C-terminal position, which encodes the FLAG tag epitope. […]
# (§2) The HEK293T cells were kindly provided by Jay P. Slack (Givaudan Flavors Corporation; Cincinnati, OH, USA). […] The fluorescence intensity was measured for 90 s (excitation 488 nm, emission 510 nm) in an automated fluorometric FlexStation®3 Multi-Mode microplate reader (Molecular Devices; San Jose, CA, USA). […] The Ca^2+ changes were expressed as fractional changes in fluorescent light intensity: ΔF/F = (F − F0)/F0, where F was the fluorescent light intensity at each point, and F0 was the value of emitted fluorescent light prior to stimulus application. To calculate dose–response relationships, the changes in fluorescence upon stimulus application were averaged, mock-subtracted and baseline-corrected. […] The half-maximal effective concentrations (EC50 values) and maximal signal amplitudes were calculated using SigmaPlot software (version 15.0) (Systat Software; San Jose, CA, USA).
# (§3) For in vitro calcium mobilisation assay performed on hTAS1R2-SNPs, hTAS1R3-SNPs and mTAS1R3-I60T, 6 to 7 concentrations were tested for each sweet compound, plus buffer alone. All concentration–receptor combinations were measured in duplicate, and each experiment was repeated at least 4 times (8 wells/concentration). […]
# [2] = biological target: T2, human TAS1R2-C9S (subunit alone) (Homo sapiens, UniProt Q8TE23); experiment: Calcium mobilisation assay, TAS1R2-C9S subunit alone; type: cell-based
# T2 construct: expressed in transfected cells; host or cells: HEK293T-Gα16gust44
# T2 sequence (Q8TE23 20-839): T1 sequence (Q8TE23 20-839)
# Text: as §1, §2, §3
compound,measurement,setting,value
"C=C(C)[C@@H]1CC=C(/C=N/O)CC1 [Perillartine, perillartine]",EC50,[1],90 ± 17 µM
same,R1 = Variant EC50/WT EC50,[1],1.0
same,Max ΔF/F0,[1]; maximal signal amplitude,1.06 ± 0.06
same,EC50,[2],190 ± 26.6 µM
same,R1 = Variant EC50/WT EC50,[2],2.1
same,Max ΔF/F0,[2]; maximal signal amplitude,0.44 ± 0.02
